Like-named read-outs stand apart in the source and are kept apart here.
Key:
[1] = system: HCV replicon in Huh7 cells; test: HCV replicon cell-based assay; set-up: species or system HCV strain 1B; conditions: HCV replicon, Huh7 cells, 4 days, activity ranges, read-out: EC50
In short: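 Genotype 1b subgenomic replicon Huh7 cells exposed to compound 4 days at 37° C in 4% FCS, 0.5% DMSO medium. EC50 from TaqMan RT-PCR of HCV RNA, normalized to total RNA by RiboGreen; CC50 from alamar Blue fluorescence after 4 h.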

[2] = target: HCV NS3/4A protease complex (Hepatitis C virus genotype 1a, UniProt P27958, C1454S/C1711G); test: Recombinant HCV NS3/4A protease complex FRET peptide assay (strain not stated); type: biochemical; conditions: strain not stated, activity ranges
[3] = IC50, NS3/4A protease enzyme assay

Chain of HCV NS3/4A protease complex (P27958 1027-1711, stated change not applied): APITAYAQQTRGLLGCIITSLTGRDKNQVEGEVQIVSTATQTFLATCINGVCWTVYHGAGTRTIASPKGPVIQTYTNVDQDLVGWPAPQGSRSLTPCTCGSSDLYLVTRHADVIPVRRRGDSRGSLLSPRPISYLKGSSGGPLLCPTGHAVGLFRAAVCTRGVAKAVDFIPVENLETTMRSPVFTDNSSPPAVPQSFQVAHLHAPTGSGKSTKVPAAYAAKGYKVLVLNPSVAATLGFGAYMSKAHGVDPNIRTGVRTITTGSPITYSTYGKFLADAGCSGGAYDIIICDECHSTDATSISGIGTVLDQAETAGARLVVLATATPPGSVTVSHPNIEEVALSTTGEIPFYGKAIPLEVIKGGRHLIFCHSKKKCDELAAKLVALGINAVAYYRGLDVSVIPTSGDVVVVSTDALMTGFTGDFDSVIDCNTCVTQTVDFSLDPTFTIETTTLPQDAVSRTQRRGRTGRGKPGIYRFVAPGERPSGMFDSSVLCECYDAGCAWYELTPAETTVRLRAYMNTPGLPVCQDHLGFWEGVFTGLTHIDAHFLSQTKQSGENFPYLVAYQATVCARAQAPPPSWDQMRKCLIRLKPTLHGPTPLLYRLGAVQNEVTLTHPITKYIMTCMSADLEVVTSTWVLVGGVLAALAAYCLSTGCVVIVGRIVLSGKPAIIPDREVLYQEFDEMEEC
Chain of HCV NS3/4A protease complex (P27958 1027-1711, stated change not applied): as above

Compound	EC50 ([1]; Hepatitis C virus, Huh-7, 96 h) [nM]	IC50 [2, 3] [nM]	EC50 [1] [nM]	IC50 ([2]; NS3/4A protease enzyme assay, read-out: IC50) [nM]
C=CCOC(=O)N[C@H](C(=O)N1C[C@H](Oc2cc(-c3ccccc3)nc3cc(OC)ccc23)CC1C(=O)N[C@]1(C(=O)NS(=O)(=O)C2CC2)C[C@H]1C=C)C(C)(C)C (stereo partly drawn) [Compound 126, {1S-[2S-(1R-cyclopropanesulfonylaminocarbonyl-2S-vinyl-cyclopropylcarbamoyl)-4R-(7-methoxy-2-phenyl-quinolin-4-yloxy)-pyrrolidine-1-carbonyl]-2,2-dimethyl-propyl}-carbamic acid allyl ester]	< 50	< 50		
C=CCC[C@](C)(NC(=O)[C@@H]1C[C@@H](Oc2cc(-c3ccccc3)nc3cc(OC)ccc23)CN1C(=O)C(NC(=O)OC(C)(C)C)C(C)(C)C)C(=O)NS(=O)(=O)c1ccccc1 (stereo partly shown) [Compound 38]	< 50	< 50		
C=C[C@@H]1C[C@]1(NC(=O)C1CC(Oc2cc(-c3ccccc3)nc3cc(OC)ccc23)CN1C(=O)[C@@H](NC(=O)Oc1ccccc1)C(C)(C)C)C(=O)NS(=O)(=O)C1CC1 (stereo partly drawn) [Compound 116, {1S-[2S-(1R-cyclopropanesulfonylaminocarbonyl-2S-vinyl-cyclopropylcarbamoyl)-4R-(7-methoxy-2-phenyl-quinolin-4-yloxy)-pyrrolidine-1-carbonyl]-2,2-dimethyl-propyl}-carbamic acid phenyl ester]	< 50	< 50		
CCCNC(=O)N[C@H](C(=O)N1C[C@H](Oc2cc(-c3ccccc3)nc3cc(OC)ccc23)C[C@H]1C(=O)N[C@]1(C(=O)NS(=O)(=O)C2CC2)CC1CC)C(C)C (stereo in doubt) [Compound 8, 4-(7-methoxy-2-phenylquinolin-4-yloxy)-1-[3-methyl-2-(3-propylureido)butyryl]pyrrolidine-2-carboxylic acid (1-cyclopropanesulfonylaminocarbonyl-2-ethylcyclopropyl)amide]	< 50	< 50		
C=C[C@@H]1C[C@]1(NC(=O)C1C[C@@H](Oc2cc(-c3ccccc3)nc3cc(OC)ccc23)CN1C(=O)[C@@H](NC(=O)c1ccco1)C(C)(C)C)C(=O)NS(=O)(=O)C1CC1 (stereo partly drawn) [Compound 110, 1-{2S-[(furan-2-carbonyl)-amino]-3,3-dimethyl-butyryl}-4R-(7-methoxy-2-phenyl-quinolin-4-yloxy)-pyrrolidine-2S-carboxylic acid (1R-cyclopropanesulfonylaminocarbonyl-2S-vinyl-cyclopropyl)-amide]	< 500	< 50		
C=CC1C[C@]1(NC(=O)[C@@H]1C[C@@H](Oc2cc(-c3ccccc3)nc3cc(OC)ccc23)CN1C(=O)[C@@H](NC(=O)O[C@H]1CCOC1)C(C)(C)C)C(=O)NS(=O)(=O)C1CC1 (stereo partly drawn) [Compound 18, {1-[2-(1-Cyclopropanesulfonylaminocarbonyl-2-vinylcyclopropylcarbamoyl)-4-(7-methoxy-2-phenyl-quinolin-4-yloxy)-pyrrolidine-1-carbonyl]-2,2-dimethyl-propyl}carbamic acid tetrahydrofuran-3(S)-yl ester]	< 50	< 50		
C=CC1C[C@]1(NC(=O)[C@@H]1C[C@@H](Oc2cc(-c3ccccc3)nc3cc(OC)ccc23)CN1C(=O)C(NC(=O)OC(C)(C)C)C(C)(C)C)C(=O)NS(=O)(=O)c1ccccc1C(=O)OC (stereo partly shown) [Compound 57]	< 500	< 500		
CCC(C)[C@H](NC(=O)OC(C)(C)C)C(=O)N1C[C@H](Oc2cc(-c3ccccc3)nc3cc(OC)ccc23)C[C@H]1C(=O)NC1(C(=O)NS(=O)(=O)C2CC2)CC1 (stereo partly shown) [Compound 68]	< 5000	< 50		
COc1ccc2c(OC3C[C@@H](C(=O)NC4(C(=O)NS(=O)(=O)C5CC5)CC45CC5)N(C(=O)[C@@H](NC(=O)OC(C)(C)C)C(C)(C)C)C3)cc(-c3ccccc3)nc2c1 (stereo partly shown) [Compound 140, {1-[2-(1-Cyclopropanesulfonylaminocarbonyl-spiro[2.2]pentane-1-ylcarbamoyl)-4-(7-methoxy-2-phenyl-quinolin-4-yloxy)-pyrrolidine-1-carbonyl]-2,2-dimethyl-propyl}-carbamic acid tert-butyl ester]	< 500	< 50		
C=C[C@@H]1C[C@]1(NC(=O)C1C[C@@H](Oc2cc(-c3ccccc3)nc3cc(OC)ccc23)CN1C(=O)[C@@H](NC(=O)OCCCC)C(C)(C)C)C(=O)NS(=O)(=O)C1CC1 (stereo partly drawn) [Compound 127, {1S-[2S-(1R-cyclopropanesulfonylaminocarbonyl-2S-vinyl-cyclopropylcarbamoyl)-4R-(7-methoxy-2-phenyl-quinolin-4-yloxy)-pyrrolidine-1-carbonyl]-2,2-dimethyl-propyl}-carbamic acid butyl ester]	< 50	< 50		
C=CC1CC1(NC(=O)[C@@H]1C[C@@H](Oc2cc(-c3ccccc3)nc3cc(OC)ccc23)CN1C(=O)[C@@H](NC(=O)OC(C)(C)C)C(C)C)C(=O)NS(C)(=O)=O (stereo partly shown) [Compound 89]	< 5000	< 500		
C=CCC[C@](C)(NC(=O)[C@@H]1C[C@@H](Oc2cc(-c3ccccc3)nc3cc(OC)ccc23)CN1C(=O)C(NC(=O)OC(C)(C)C)C(C)(C)C)C(=O)NS(=O)(=O)c1ccc(Cl)cc1 (stereo partly shown) [Compound 44]	< 500	< 50		
1-[2S-(4-fluoro-benzenesulfonylamino)-3,3-dimethyl-butyryl]-4R-(7-methoxy-2-phenylquinolin-4-yloxy)-pyrrolidine-2S-carboxylic acid (1R-cyclopropanesulfonylaminocarbonyl -2S-vinyl-cyclopropyl)amide [Compound 119]			< 500	< 50
C=CC1C[C@]1(NC(=O)[C@@H]1C[C@@H](Oc2cc(-c3ccccc3)nc3cc(OC)ccc23)CN1C(=O)C(NC(=O)OC(C)(C)C)C(C)(C)C)C(=O)NS(=O)(=O)c1ccccc1I (stereo partly shown) [Compound 56]	< 500	< 50		
C=CC1C[C@]1(NC(=O)[C@@H]1C[C@@H](Oc2cc(-c3ccccc3)nc3cc(OC)ccc23)CN1C(=O)[C@@H](NC(=O)OC(C)(C)C)C1CCCC1)C(=O)NS(=O)(=O)C1CC1 (stereo partly shown) [Compound 29]	< 50	< 50		
C=C[C@@H]1C[C@]1(NC(=O)C1C[C@@H](Oc2cc(-c3ccccc3)nc3cc(OC)ccc23)CN1C(=O)[C@@H](NC(=O)COC)C(C)(C)C)C(=O)NS(=O)(=O)C1CC1 (stereo partly drawn) [Compound 107, 1-[2S-(2-methoxy-acetylamino)-3,3-dimethyl-butyryl]-4R-(7-methoxy-2-phenyl-quinolin-4-yloxy)-pyrrolidine-2S-carboxylic acid (1R-cyclopropanesulfonylamino-carbonyl-2S-vinyl-cyclopropyl)-amide]	< 500	< 50		
COc1ccc2c(OC3C[C@@H](C(=O)NC4(C(=O)NS(=O)(=O)C5CC5)CCC45CC5)N(C(=O)[C@@H](NC(=O)OC(C)(C)C)C(C)(C)C)C3)cc(-c3ccccc3)nc2c1 (stereo partly shown) [Compound 141]	< 5000	< 500		
CCC1C[C@]1(NC(=O)[C@@H]1C[C@@H](Oc2cc(-c3ccccc3)nc3cc(OC)ccc23)CN1C(=O)[C@@H](NC(=O)CC1CC1)C(C)C)C(=O)NS(=O)(=O)C1CC1 (stereo in doubt) [Compound 5, 1-[2-(2-cyclopropylacetylamino)-3-methylbutyryl]-4-(7-methoxy-2-phenylquinolin-4-yloxy)pyrrolidine-2-carboxylic acid (1-cyclopropanesulfonylaminocarbonyl-2-ethylcyclopropyl)amide]	< 50	< 50		
CCOC(=O)N[C@H](C(=O)N1C[C@H](Oc2cc(-c3ccccc3)nc3cc(OC)ccc23)C[C@H]1C(=O)N[C@]1(C(=O)NS(=O)(=O)C2CC2)CC1CC)C(C)C (stereo partly shown) [Compound 7]	< 500	< 50		
C=CC1C[C@]1(NC(=O)[C@@H]1C[C@@H](Oc2cc(-c3ccccc3)nc3cc(OC)ccc23)CN1C(=O)[C@@H](NC(=O)OC(C)(C)C)C(C)(C)C)C(=O)NS(=O)(=O)c1ccccc1C#N (stereo partly shown) [Compound 50]	< 5000	< 500		
CCC1C[C@]1(NC(=O)[C@@H]1C[C@@H](Oc2cc(-c3ccccc3)nc3cc(OC)ccc23)CN1C(=O)[C@@H](NC(=O)OC1CCCC1)C(C)C)C(=O)NS(=O)(=O)C1CC1 (stereo partly shown) [Compound 6]	< 50	< 50		
C=CC1C[C@]1(NC(=O)[C@@H]1C[C@@H](Oc2cc(-c3ccccc3)nc3cc(OC)ccc23)CN1C(=O)C(NC(=O)OC(C)(C)C)C(C)(C)C)C(=O)NS(=O)(=O)c1ccc(C(C)(C)C)cc1 (stereo partly shown) [Compound 60]	< 500	< 500		
C=C1C[C@]1(NC(=O)[C@@H]1C[C@@H](Oc2cc(-c3ccccc3)nc3cc(OC)ccc23)CN1C(=O)C(NC(=O)OC(C)(C)C)C(C)(C)C)C(=O)NS(=O)(=O)c1cccc(Br)c1 (stereo partly shown) [Compound 55]	< 50	< 50		
CCC1C[C@]1(NC(=O)[C@@H]1C[C@@H](Oc2cc(-c3ccccc3)nc3cc(OC)ccc23)CN1C(=O)[C@@H](NC(=O)OC(C)(C)C)C(C)(C)C)C(=O)NS(=O)(=O)C1CC1 (stereo in doubt) [Compound 2, {1-[2-(1-cyclopropanesulfonylamino-carbonyl-2-ethylcyclopropylcarbamoyl)-4-(7-methoxy-2-phenyl-quinolin-4-yloxy)-pyrrolidine-1-carbonyl]-2,2-dimethylpropyl}carbamic acid tert-butyl ester]	< 50	< 50		
C=CCC[C@](C)(NC(=O)[C@@H]1C[C@@H](Oc2cc(-c3ccccc3)nc3cc(OC)ccc23)CN1C(=O)C(NC(=O)OC(C)(C)C)C(C)(C)C)C(=O)NS(=O)(=O)c1ccc(F)c(Cl)c1 (stereo partly shown) [Compound 45]	< 500	< 50		
C=CCC[C@](C)(NC(=O)[C@@H]1C[C@@H](Oc2cc(-c3ccccc3)nc3cc(OC)ccc23)CN1C(=O)C(NC(=O)OC(C)(C)C)C(C)(C)C)C(=O)NS(=O)(=O)c1ccccc1Cl (stereo partly shown) [Compound 42]	< 500	< 50		

Reference: patent US6872805B2 (Bristol-Myers Squibb Company, priority 2000, dated 2005)
